# Data as given in patent US7067619B2, “Integrin-binding peptides” (La Jolla Cancer Research Foundation, priority 1993, dated 2006).
# Bridge positions count the residues as written; N and C are the ends. Ends that are not written are not given here. Peptide text beside a SMILES is read from it.
# What was measured:
# α5β1 integrin [1] = experiment: Inhibition of α5β1-mediated cell attachment to fibronectin; format: cell-based, human
# Source text: Cell lines expressing different integrins were used to examine peptide inhibition of integrin function. A human melanoma cell line, C8161, a fibroblast cell line, WI-38, and an osteosarcoma cell line, MG-63 (described by Seftor et al., Canc. Res., 53:3411–3415 (1993); Vogel et al., J. Biol. Chem., 265:5934–5937 (1990); and Pytela et al. (1985), supra, respectively, each of which is incorporated herein by reference) attach to fibronectin through α5β1 integrin, as does B2/α27, a CHO cell line transfected with human α5. B2/C1, the control parental CHO line (Bauer et al., J. Cell. Biol. 116:477–487 (1992), which is incorporated herein by reference), attaches via […]. CHO cells C11 and NIH 3T3 cells express the endogenous Chinese hamster and mouse α5β1 integrins, respectively. The human melanoma cells, A375-M, attach to fibronectin through both α5β1 and α4β1 integrins (Mould et al., J. Biol. Chem. 265:4020–4024 (1990), which is incorporated herein by reference). CHO cell line B2/v7 express the αvβ1 integrin (Zhang et al., J. Cell. Biol. 122:235–242 (1993), which is incorporated herein by reference). The vitronectin-binding integrins […] and αvβ3 were assayed using the cell line HT-29 and IMR-90, respectively (Koivunen et al., J. Biol. Chem. 268: 20205–20210 (1993)).
# Cell lines expressing fibronectin-binding integrins were used to determine peptide activities against these integrins in the cell attachment assay described by Ruoslahti et al., Meth. Enzymol., 144:803–831 (1982), which is incorporated herein by reference. Human plasma fibronectin was iodinated as described by Morla and Ruoslahti, J. Cell Biol., 118:421–429 (1992), which is incorporated herein by reference. Vitronectin was obtained from Telios Pharmaceuticals (San Diego, Calif.). […] Peptide was coated on plastic by incubating at 37° C. for 2 hours in phosphate buffered saline containing 0.25% glutaraldehyde to crosslink the peptide. Free binding sites on the plastic were blocked using BSA. Approximately 1×10^5 cells per well were allowed to attach for 1 hour in the presence or absence of competing peptides. Bound cells were quantitated by staining with 0.1% amido black.
# Inhibition of cell attachment mediated by either fibronectin- or vitronectin-binding integrins was performed to determine peptide specificity in a biologically relevant system. The assays and cell lines were performed as described above. FIGS. 5 and 6 show the results of cell attachment mediated by the fibronectin binding integrins α5β1 and αvβ1.
# αvβ3 integrin = αvβ3 integrin (Homo sapiens, UniProt P05106+P06756); experiment: Inhibition of peptide-displaying phage binding to αvβ3 integrin by synthetic peptides; parameters: The αvβ3, αvβ5 and α5β1 integrins were isolated from human placental extracts; from tissue; host or cells: human placenta
# Sequence of αvβ3 integrin (P06756 31-889 limits assumed): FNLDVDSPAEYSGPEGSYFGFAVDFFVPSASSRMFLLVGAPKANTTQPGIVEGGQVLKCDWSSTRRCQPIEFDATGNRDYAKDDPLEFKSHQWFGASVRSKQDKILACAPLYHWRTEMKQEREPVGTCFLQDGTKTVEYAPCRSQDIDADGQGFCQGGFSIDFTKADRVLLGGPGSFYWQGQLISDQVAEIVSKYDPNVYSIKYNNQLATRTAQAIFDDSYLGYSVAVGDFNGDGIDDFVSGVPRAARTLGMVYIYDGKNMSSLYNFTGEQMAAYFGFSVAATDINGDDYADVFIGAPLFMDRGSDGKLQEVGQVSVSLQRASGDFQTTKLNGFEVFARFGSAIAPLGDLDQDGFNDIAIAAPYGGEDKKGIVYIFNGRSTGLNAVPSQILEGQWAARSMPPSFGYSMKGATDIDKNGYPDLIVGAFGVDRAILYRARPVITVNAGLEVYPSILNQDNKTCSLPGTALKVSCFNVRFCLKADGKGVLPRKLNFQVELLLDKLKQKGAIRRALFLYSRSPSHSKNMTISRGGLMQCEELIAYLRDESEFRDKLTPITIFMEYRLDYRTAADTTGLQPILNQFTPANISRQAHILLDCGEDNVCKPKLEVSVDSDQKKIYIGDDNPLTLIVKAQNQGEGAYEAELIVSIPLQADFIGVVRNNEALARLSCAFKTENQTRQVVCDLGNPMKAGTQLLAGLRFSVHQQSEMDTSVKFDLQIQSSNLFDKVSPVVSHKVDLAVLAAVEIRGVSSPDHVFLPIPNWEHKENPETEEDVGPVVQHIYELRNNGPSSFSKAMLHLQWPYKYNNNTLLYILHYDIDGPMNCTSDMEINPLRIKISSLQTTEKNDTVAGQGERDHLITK
# Sequence of αvβ3 integrin (P06756 891-1048 partner limits assumed): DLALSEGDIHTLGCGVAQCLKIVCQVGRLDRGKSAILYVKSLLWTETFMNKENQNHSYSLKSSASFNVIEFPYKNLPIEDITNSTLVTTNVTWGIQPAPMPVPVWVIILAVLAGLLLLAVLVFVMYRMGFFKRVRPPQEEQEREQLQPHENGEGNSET
# Sequence of αvβ3 integrin (P05106 27-788): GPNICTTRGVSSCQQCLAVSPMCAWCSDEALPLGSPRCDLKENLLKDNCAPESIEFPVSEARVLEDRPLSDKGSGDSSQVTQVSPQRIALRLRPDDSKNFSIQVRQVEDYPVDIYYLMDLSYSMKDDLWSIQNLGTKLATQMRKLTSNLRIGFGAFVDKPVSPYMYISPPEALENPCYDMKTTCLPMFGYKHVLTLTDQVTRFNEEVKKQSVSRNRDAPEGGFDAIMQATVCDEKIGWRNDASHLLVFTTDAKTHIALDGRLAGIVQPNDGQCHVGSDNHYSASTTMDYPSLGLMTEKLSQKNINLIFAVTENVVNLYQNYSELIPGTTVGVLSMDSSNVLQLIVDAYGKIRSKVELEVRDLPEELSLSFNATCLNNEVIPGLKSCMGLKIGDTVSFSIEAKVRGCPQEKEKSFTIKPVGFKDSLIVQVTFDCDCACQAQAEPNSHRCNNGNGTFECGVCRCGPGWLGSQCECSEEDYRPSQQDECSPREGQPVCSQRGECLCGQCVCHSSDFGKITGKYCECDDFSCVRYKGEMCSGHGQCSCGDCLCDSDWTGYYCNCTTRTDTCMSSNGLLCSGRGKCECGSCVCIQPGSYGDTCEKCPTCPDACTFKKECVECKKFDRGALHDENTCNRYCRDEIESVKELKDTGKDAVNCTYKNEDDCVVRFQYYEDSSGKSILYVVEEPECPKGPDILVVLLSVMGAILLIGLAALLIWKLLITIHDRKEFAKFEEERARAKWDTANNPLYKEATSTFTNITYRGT
# Source text: (§1) In addition, most of the phage-binding activity in the αvβ3 preparation was captured into microliter wells coated with antibodies against the αv or β3 subunits as described previously (Koivunen et al., J. Biol. Chem., 268:20205–10 (1993). The αIIbβ3 integrin was isolated from outdated platelets (Pytela et al., Science, 231:1559–1562 (1986)).
# (§2) Binding of individual cloned phage to integrins was studied in microliter wells as described in Koivunen et al., J. Cell. Biol., 124:373–380 (1994). Phage binding to α5β1 and αvβ3 were assayed in TBS buffer containing 1% BSA and 1 mM MnCl2 and binding to αvβ5 in the presence of 1 mM CaCl2. Phage that were bound were determined by their ability to infect F-pilus positive K91kan bacteria. Bacteria were grown overnight in microliter wells in the presence of tetracycline and the absorbance indicative of bacterial growth was read at 600 nm with an ELISA plate reader.
# The ability of […] [SEQ ID NO:12] and CRGDC [SEQ ID NO:37] containing peptides to inhibit binding of CRGDCL-displaying [SEQ ID NO:7] phage to the microwells coated with αvβ3 integrin also was examined. CRGDCL-displaying [SEQ ID NO:7] phage were added to a well and either cyclic […] [SEQ ID NO:6] or cyclic […] [SEQ ID NO:5] was added to compete for binding. Binding was quantitated as described above.
# α5β1 integrin [2] = biological target: T1, α5β1 integrin (Homo sapiens, UniProt P05556+P08648); experiment: Inhibition of peptide-displaying phage binding to α5β1 integrin by synthetic peptides; conditions: for binding affinity for α5β1: high binding affinity defined as IC50 of 1×10^−7 M or less in a competitive binding assay
# T1 construct: The αvβ3, αvβ5 and α5β1 integrins were isolated from human placental extracts; from tissue; host or cells: human placenta
# T1 sequence (P08648 42-894 limits assumed): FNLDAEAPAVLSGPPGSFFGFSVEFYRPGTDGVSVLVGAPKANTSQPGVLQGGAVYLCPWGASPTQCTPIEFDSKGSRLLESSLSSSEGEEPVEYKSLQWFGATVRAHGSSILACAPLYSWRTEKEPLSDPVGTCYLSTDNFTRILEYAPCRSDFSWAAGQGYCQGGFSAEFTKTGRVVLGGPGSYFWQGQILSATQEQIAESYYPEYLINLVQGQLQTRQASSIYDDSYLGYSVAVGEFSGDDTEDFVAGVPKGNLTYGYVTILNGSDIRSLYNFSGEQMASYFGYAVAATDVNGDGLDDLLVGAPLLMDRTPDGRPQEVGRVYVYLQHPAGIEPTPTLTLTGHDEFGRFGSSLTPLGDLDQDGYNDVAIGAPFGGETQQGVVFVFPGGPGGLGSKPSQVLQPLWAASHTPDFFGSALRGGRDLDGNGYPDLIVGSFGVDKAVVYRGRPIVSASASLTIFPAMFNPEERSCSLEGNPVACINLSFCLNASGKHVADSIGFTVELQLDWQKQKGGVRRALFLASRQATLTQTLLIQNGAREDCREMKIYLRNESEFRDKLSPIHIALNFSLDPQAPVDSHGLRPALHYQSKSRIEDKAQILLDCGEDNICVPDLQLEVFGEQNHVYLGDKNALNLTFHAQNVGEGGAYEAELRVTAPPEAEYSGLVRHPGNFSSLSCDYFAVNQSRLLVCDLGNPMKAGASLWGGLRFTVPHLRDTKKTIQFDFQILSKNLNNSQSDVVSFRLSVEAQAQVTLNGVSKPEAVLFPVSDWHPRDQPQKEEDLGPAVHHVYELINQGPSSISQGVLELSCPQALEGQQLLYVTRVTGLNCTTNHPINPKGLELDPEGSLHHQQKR
# T1 sequence (P08648 895-1049 partner limits assumed): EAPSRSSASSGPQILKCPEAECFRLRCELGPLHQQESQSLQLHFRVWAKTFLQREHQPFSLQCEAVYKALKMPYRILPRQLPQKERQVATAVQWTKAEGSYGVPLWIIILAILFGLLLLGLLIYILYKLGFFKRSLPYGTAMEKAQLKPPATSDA
# T1 sequence (P05556 21-798): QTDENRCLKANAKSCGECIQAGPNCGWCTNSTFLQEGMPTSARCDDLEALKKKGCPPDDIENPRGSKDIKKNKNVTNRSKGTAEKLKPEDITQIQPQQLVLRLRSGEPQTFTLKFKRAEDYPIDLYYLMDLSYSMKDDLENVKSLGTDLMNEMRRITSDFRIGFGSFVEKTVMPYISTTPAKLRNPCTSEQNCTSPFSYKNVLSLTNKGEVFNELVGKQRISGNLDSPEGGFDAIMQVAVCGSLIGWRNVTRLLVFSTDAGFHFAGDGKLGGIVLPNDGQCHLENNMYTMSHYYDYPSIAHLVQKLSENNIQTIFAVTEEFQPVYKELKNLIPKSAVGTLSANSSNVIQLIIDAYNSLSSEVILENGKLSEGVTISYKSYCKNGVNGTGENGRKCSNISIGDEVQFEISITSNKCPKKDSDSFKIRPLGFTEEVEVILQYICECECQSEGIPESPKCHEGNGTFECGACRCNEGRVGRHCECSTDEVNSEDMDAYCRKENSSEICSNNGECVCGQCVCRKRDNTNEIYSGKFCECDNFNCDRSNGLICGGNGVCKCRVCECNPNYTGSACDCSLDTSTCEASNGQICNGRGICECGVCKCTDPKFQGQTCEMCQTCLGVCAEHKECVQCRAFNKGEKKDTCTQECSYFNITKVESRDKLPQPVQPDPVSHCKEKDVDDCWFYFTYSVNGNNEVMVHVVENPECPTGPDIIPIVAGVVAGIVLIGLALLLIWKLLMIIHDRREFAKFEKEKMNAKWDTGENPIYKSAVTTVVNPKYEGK
# Procedure: Phage clone containing the RGDGW [SEQ ID NO:9] sequence was incubated for 1 hour in integrin-coated microliter wells in the presence of the competing peptides. After extensive washing, the phage remained bound were determined as described in Example XII.
# as §1, §2
# Relative affinities of the […] [SEQ ID NO:12] and CRGDC [SEQ ID NO:37] peptides were determined by inhibition of binding of peptide-displaying phage to α5β1 integrin. Peptide-displaying phage were constructed as described by Scott and Smith, Science 249:386–390 (1990) and Example IV. Microwell plates were coated with various integrins as described by Koivunen et al., J. Biol. Chem., 268:20205–10 (1993) and Example II.
# The binding of […] [SEQ ID NO:12]-containing peptide ligands to α5β1 integrin was performed as follows. RRETAWA [SEQ ID NO:8]-displaying phage were incubated for 1 hour in the presence of various concentrations of the cyclic peptides containing […] [SEQ ID NO:12] and containing CRGDC [SEQ ID NO:37] in microliter wells coated with the α5β1 integrin. Binding was quantitated by adding K91kan bacteria directly to the wells and growing the bacteria overnight at room temperature (Smith and Scott, Meth. Enzymol., 217:228–257 (1993), which is incorporated herein by reference).
# Additional peptide motifs were tested as follows. ELRGDGW-displaying [SEQ ID NO:4] phage were added together with various concentrations of the cyclic peptides containing […] [SEQ ID NO:12] and containing CRGDC [SEQ ID NO:37] into microliter wells coated with the α5β1 integrin, incubated for 1 hour at room temperature and binding to wells was quantitated.
molecule,measurement,setting,value
"C[C@H](N)C(=O)N[C@H]1CSSC[C@@H](C(=O)NCC(=O)O)NC(=O)[C@H](Cc2ccccc2)NC(=O)[C@@H]2CSSC[C@H](NC(=O)[C@H](CC(=O)O)NC1=O)C(=O)N[C@@H](CCCNC(=N)N)C(=O)NCC(=O)N[C@@H](CC(=O)O)C(=O)N2 (H-ACDCRGDCFCG-OH; disulfide 2-10, 4-8)",activity toward α5β1 compared to *CRGDC*,α5β1 integrin [1]; cell attachment to fibronectin,significantly decreased activity
same,activity toward α5β1 compared to linear GRGDSP,α5β1 integrin [1]; cell attachment to fibronectin,only slightly better
same,inhibition of phage binding to αvβ3 relative to *CRGDC*,αvβ3 integrin; better than *CRGDC*,5 fold
GACRRETAWACGA,inhibition of cell attachment to a 110 kDa fragment of fibronectin,α5β1 integrin [1]; 110 kDa fragment containing the cell attachment domain,inhibited
same,inhibition of attachment of A375-M cells to fibronectin,α5β1 integrin [1]; A375-M cells (also express α4β1),only partially inhibited
same,efficiency at inhibiting binding to α5β1 compared with cyclic CRGDCL peptide,"α5β1 integrin [1]; B2/α27 cells, fibronectin, FIG. 5",more efficient
same,binding activity following reduction of the disulfide bond and alkylation of the cysteine residues,α5β1 integrin [1]; linearized vs cyclic peptide,greatly decreased
same,reduction of activity after reduction and alkylation of the disulfide bond,α5β1 integrin [1]; linearized vs cyclic peptide,about 50 ×
same,inhibition of binding of ELRGDGW-displaying phage to α5β1 integrin,"α5β1 integrin [2]; ELRGDGW-displaying phage, CRRETAWAC compared with CRGDC, FIG. 2",approximately the same degree
same,efficiency of inhibition of RRETAWA-displaying phage binding to α5β1 relative to CRGDC containing peptides,"α5β1 integrin [2]; RRETAWA-displaying phage, comparator CRGDC, FIG. 4",at least 10 times
same,binding affinity for α5β1,α5β1 integrin [2]; listed as CRRETAWAC,high binding affinity
same,binding affinity for α5β1,α5β1 integrin [2]; listed as GA*CRRETAWAC*GA,high affinity
same,inhibition of binding of CRGDCL-displaying phage to integrin-coated wells,"αvβ3 integrin; CRGDCL-displaying phage, αvβ3-coated wells, FIG. 3 (result sentence prints α5β1)",ineffective
A*CPSRLDSPC*G (ACPSRLDSPCG; disulfide 2-10 (inferred)),inhibition of RGD phage binding to α5β1,"α5β1 integrin [2]; RGDGW phage, FIG. 9",no inhibition
same,affinity for αvβ3,αvβ3 integrin; phage binding experiments,low
same,selectivity towards the αvβ3 integrin,αvβ3 integrin; phage binding experiments,partial selectivity
